Like-named read-outs stand apart in the source and are kept apart here. Non-standard residues stand in square brackets, D forms with d. Residues, ends and D or L forms follow the SMILES beside them. Hyp = O=C(O)[C@@H]1C[C@@H](O)CN1
Assays:
[1] = Bioavailability after first pass metabolism in HIEC-6/HepG2 co-culture; conditions: human
Procedure: (§1) A HIEC-6/HepG2 cell co-culture system was used to determine the bioavailability of targeted BAPs from CHs after digestion (Figure 1). HIEC-6 cells and HepG2 were cultured separately but then later combined in a transwell system using polyester (PET) ThinCerts (Greiner Bio-One, Cat no. 662641, Monroe, NC, USA) and corresponding 24 multiwell cell culture plates (Greiner Bio-One, Cat no. 662160, Monroe, NC, USA). […] HIEC-6 cells were seeded onto ThinCerts at 1 × 10^5 cells/well. The medium was changed every 2 days and cells were grown for a total of 8–9 days. […] HepG2 cells were then added to the basolateral side of the transwell (1 million cells/mL). […] At time 0, the apical medium was replaced with media containing 2 mg/mL reconstituted freeze-dried (FD) CH digesta (either CH-GL and CH-OPT), or only media (blank). The co-culture and treatments were incubated for 2 h at 37 °C, 5% CO2. After 2 h, the inserts containing HIEC-6 cells were removed, and the plates containing HepG2 cells were incubated for another 3 h. Samples were taken from the apical and basolateral sides at times 0, 2 and 5 h, and microcentrifuged at 2000 rpm for 15 min. The supernatant was collected and used for subsequent peptide analysis (see Section 2.7). Three independent experiments assessing bioavailability were completed. Controls included inserts without seeded cells (TEER control) and seeded wells with no CHs treatment (only media; negative control).
(§2) Samples were purified from cellular and protein debris by adapting the use of Amicon® Ultra-0.5 Centrifugal Filter Devices (Millipore, UFC501096, Burlington, Massachusetts, USA). Samples from cell culture were processed as per the manufacturer’s instructions, however, the filtrate (comprising of peptides) was not discarded and instead used for analysis. A CE system (Capel 205M; Lumex Instruments, Fraserview Place, BC) was used for the targeted quantification of 5 peptides (Gly-Pro, Hyp-Gly, Ala-Hyp, Pro-Hyp, Gly-Pro-Hyp). The instrument was set for 20 °C and the separation capillary (Molex, 2000019, Lisle, Illinois, US) was similar to previous CE methods for collagen analysis [36]; 60 cm in total length, 53 cm effective length, and 75 µm inside diameter. Injections were completed using pressure (30 mbar for 10 s) at 0 kV and analysis was completed at 20 kV using 0 mbar for 1199 s at 205 nm. A 0.1 M phosphate buffer (pH 2.4) was used for rinsing and as running buffer. Filtered samples were diluted with running buffer before injection. Before sample injection, the capillary was rinsed with MilliQ water, 0.5 M NaOH and running buffer, each for 5 min. The electropherograms were processed to determine peak area using the software Elforun (Lumex Instruments Canada, Version 4.2.4, Mission, BC, Canada). Quantification of each peptide, based on peak area, was performed using external standards and corresponding calibration curves, where the linearity was assessed by the coefficients of determination, R^2. The mean of three measurements for each treatment was taken.
(§3) Bioavailability, after first pass metabolism, was expressed as a percentage of final and initial peptide digesta values, as described in Sadeghi Ekbatan et al. (2018) [8]. Bioavailability (%) = Peptide content after HepG2 incubation (Basolateral 5 h)/Initial amount of peptide (Apical 0 h) × 100

HepG2 cells [2] = assay: Hepatic first pass effect on transported peptides after HepG2 incubation; conditions: basolateral 5 h as percentage of basolateral 2 h, mean ± SEM
Procedure: as §1
(§4) Samples were purified from cellular and protein debris by adapting the use of Amicon® Ultra-0.5 Centrifugal Filter Devices (Millipore, UFC501096, Burlington, Massachusetts, USA). Samples from cell culture were processed as per the manufacturer’s instructions, however, the filtrate (comprising of peptides) was not discarded and instead used for analysis. A CE system (Capel 205M; Lumex Instruments, Fraserview Place, BC) was used for the targeted quantification of 5 peptides (Gly-Pro, Hyp-Gly, Ala-Hyp, Pro-Hyp, Gly-Pro-Hyp). […] Injections were completed using pressure (30 mbar for 10 s) at 0 kV and analysis was completed at 20 kV using 0 mbar for 1199 s at 205 nm. A 0.1 M phosphate buffer (pH 2.4) was used for rinsing and as running buffer. Filtered samples were diluted with running buffer before injection. Before sample injection, the capillary was rinsed with MilliQ water, 0.5 M NaOH and running buffer, each for 5 min. The electropherograms were processed to determine peak area using the software Elforun (Lumex Instruments Canada, Version 4.2.4, Mission, BC, Canada). Quantification of each peptide, based on peak area, was performed using external standards and corresponding calibration curves, where the linearity was assessed by the coefficients of determination, R^2. The mean of three measurements for each treatment was taken.
(§5) Hepatic first pass effect (%) was calculated as:Hepatic effect (%) = Peptide content after incubation with HepG2 (Basolateral 5 h)/Content of peptide available for liver metabolism (Basolateral 2 h) × 100

[3] = Peptide transport and apparent permeability across the HIEC-6 intestinal layer of a HIEC-6/HepG2 transwell co-culture; conditions: human; for Papp A→B at 2 h: Apparent permeability coefficient (Papp), mean ± SEM
Procedure: as §1, §2
(§6) The apparent permeability coefficient (Papp) was calculated similarly to Song et al. (2020) [7], using the standard equation:Papp = ΔQ/(Δt × A × C0) where Δt is the incubation time (s), A is the surface area of the insert filter membrane (cm^2), C0 is the initial concentration of peptides in the apical compartment at time 0 h (μM), and ΔQ is the amount of peptide transported within a given period (μmol/s). The incubation timepoint (Δt) used was representative of the intestinal transport phase (2 h timepoint).

HIEC-6 cells [4] = assay: as above; conditions: basolateral 2 h vs apical 0 h, mean ± SEM
Procedure: as §1, §2, §6

HIEC-6 cells [5] = system: HIEC-6 cells
Procedure: as §1, §2, §6

HepG2 cells [6] = system: HepG2 cells
Procedure: as §1, §4, §5

HIEC-6/HepG2 co-culture = conditions: human
Procedure: as §1, §2, §3

[7] = human, in vivo
in vitro [8] = conditions: human, Apparent permeability coefficient (Papp)
Procedure: as §1, §2, §6

in vitro [9] = conditions: human
Procedure: as §1, §2, §3

Caco-2 cells = conditions: cited from earlier work
[10] = human, in vivo; cited from earlier work
[11] = Peptide bioavailability after first pass metabolism

| Compound | Hepatic effect (%) on peptide content following HepG2 incubation (HepG2 cells [2]; CH-GL) | Hepatic effect (%) on peptide content following HepG2 incubation (HepG2 cells [2]; CH-OPT) | Papp A→B at 2 h ([3]; CH-GL treatment) | Peptide transport (%) across intestinal epithelium (HIEC-6 cells [4]; CH-GL digesta 2 mg/mL apical) | Peptide transport (%) across intestinal epithelium (HIEC-6 cells [4]; CH-OPT digesta 2 mg/mL apical) | Papp A→B at 2 h (in vitro [8]) | Papp (Caco-2 cells; Caco-2) | bioavailability at 5 h (in vitro [9]; [11]) | also measured |
| --- | --- | --- | --- | --- | --- | --- | --- | --- | --- |
| C[C@H](N)C(=O)N1C[C@H](O)C[C@H]1C(=O)O [Ala-Hyp] (H-Ala-[Hyp]-OH; N-terminus and C-terminus assumed) | 304.9 ± 57.2% | 198.0 ± 107.6% | 0.725 ± 0.195 ×10⁻⁶ cm/s | 9.27 ± 2.49% | 26.4 ± 5.78% | – | – | – | bioavailability at 5 h ([1]; Average bioavailability after first pass metabolism, average): > 20%; Papp at 2 h [3]: 0.725 ± 0.195 ×10⁻⁶ cm/s; Papp A→B at 2 h ([3]; CH-OPT treatment): 1.03 ± 0.226 ×10⁻⁶ cm/s |
| NCC(=O)N1CCC[C@H]1C(=O)N1C[C@H](O)C[C@H]1C(=O)O [Gly-Pro-Hyp] (H-Gly-Pro-[Hyp]-OH; N-terminus and C-terminus assumed) | – | – | – | – | – | ~9 ×10⁻⁶ cm/s | 1.09 ± 0.03 × 10^−6 cm/s | – | Apparent permeability coefficient (Papp) (HIEC-6 cells [5]): no apparent permeability coefficient could be determined; Hepatic effect (%) on peptide content following HepG2 incubation (HepG2 cells [6]): 22.32 ± 5.09%; Bioavailability (%) after first pass metabolism (HIEC-6/HepG2 co-culture): none was observed; Increase of plasma Gly-Pro-Hyp content [7]: 162.5%; bioavailability at 5 h (in vitro [9]; Bioavailability (%) after first pass metabolism): 12.2 ± 1.12%; Gly-Pro-Hyp content in the plasma after 2 h [10]: ~ 1050 µM; Initial Gly-Pro-Hyp content in the plasma [10]: ~ 400 µM |
| NCC(=O)N1CCC[C@H]1C(=O)O [Gly-Pro] (H-Gly-Pro-OH; N-terminus and C-terminus assumed) | – | – | – | – | – | – | – | > 32% | – |
| O=C(O)CNC(=O)[C@@H]1C[C@@H](O)CN1 [Hyp-Gly] (H-[Hyp]-Gly-OH; N-terminus and C-terminus assumed) | – | – | – | – | – | 6.74 ± 1.2 ×10⁻⁶ cm/s | 1e-05 cm/s | > 32% | Apparent permeability coefficient (Papp) (HIEC-6 cells [5]; human, 2 h): 5.593 ± 2.476 × 10^−6 cm/s; Transport (%) (Caco-2 cells): 22.63 ± 5.19% |
| O=C(O)[C@@H]1C[C@@H](O)CN1C(=O)[C@@H]1CCCN1 [Pro-Hyp] (H-Pro-[Hyp]-OH; N-terminus and C-terminus assumed) | 151.4 ± 24.3% | 63.63 ± 8.63% | 1.91 ± 0.479 ×10⁻⁶ cm/s | 19.18 ± 4.81% | 24.15 ± 1.42% | – | – | – | Papp (Caco-2 cells; Caco-2, LC-MS/MS, ref 15 (Sontakke et al. 2016)): 0.13 ± 0.03 × 10^−6 cm/s; Papp (Caco-2 cells; cell model not printed at the place, ref 40 (Feng et al. 2017)): 1.45 ± 0.17 × 10^−6 cm/s; bioavailability at 5 h ([1]; Bioavailability (%) after first pass metabolism, CH-GL, basolateral 5 h as percentage of apical 0 h, mean ± SEM): 26.8 ± 3.97%; bioavailability at 5 h ([1]; Bioavailability (%) after first pass metabolism, CH-OPT, basolateral 5 h as percentage of apical 0 h, mean ± SEM): 15.4 ± 2.6% |

From publication PMC8928955, “Assessment of Bioavailability after In Vitro Digestion and First Pass Metabolism of Bioactive Peptides from Collagen Hydrolysates” (Current Issues in Molecular Biology, 2021)
